Holding throughout (format): in vivo
Assay [1] concerns boll weevil (Anthonomus grandis). In words: Boll weevil test, 96-well microtiter plates with insect diet and eggs. To be noted: 120 h, egg and larval mortality after 5 days, read-out: mortality in comparison with untreated controls. The procedure:
Boll Weevil (Anthonomus gandis)
For evaluating control of boll weevil (Anthonomus grandis) the test unit consisted of 96-well-microtiter plates containing an insect diet and 5-10 A. grandis eggs.
The compounds were formulated using a solution containing 75% v/v water and 25% v/v DMSO. Different concentrations of formulated compounds were sprayed onto the insect diet at 5 μl, using a custom built micro atomizer, at two replications.
After application, microtiter plates were incubated at about 25±1° C. and about 75±5% relative humidity for 5 days. Egg and larval mortality was then visually assessed.

Assay [2] has as its system Diamond Back Moth (Plutella xylostella). Put plainly: Diamond back moth test, dipped cabbage leaves. Conditions: 3rd instar larvae, 72 hours after treatment, read-out: mortality in comparison with untreated controls. How it is done: Diamond Back Moth (Plutella xylostella)
The active compound is dissolved at the desired concentration in a mixture of 1:1 (vol:vol) distilled water:acetone. Surfactant (Kinetic® HV) is added at a rate of 0.01% (vol/vol). The test solution is prepared at the day of use.
Leaves of cabbage were dipped in test solution and air-dried. Treated leaves were placed in petri dishes lined with moist filter paper and inoculated with ten 3rd instar larvae. Mortality was recorded 72 hours after treatment. Feeding damages were also recorded using a scale of 0-100%.

In assay [3] the test system is vetch aphid (Megoura viciae). Put plainly: Vetch aphid test, broad bean leaf disks in 24-well plates. Conditions: foliar, 120 h, 5 days, read-out: mortality in comparison with untreated controls. The procedure: Vetch Aphid (Megoura viciae)
For evaluating control of vetch aphid (Megoura viciae) through contact or systemic means the test unit consisted of 24-well-microtiter plates containing broad bean leaf disks.
The compounds were formulated using a solution containing 75% v/v water and 25% v/v DMSO. Different concentrations of formulated compounds were sprayed onto the leaf disks at 2.5 μl, using a custom built micro atomizer, at two replications.
After application, the leaf disks were air-dried and 5-8 adult aphids placed on the leaf disks inside the microtiter plate wells. The aphids were then allowed to suck on the treated leaf disks and incubated at about 23±1° C. and about 50±5% relative humidity for 5 days. Aphid mortality and fecundity was then visually assessed.

SMILES strings stand for the structures.

As usually defined, the mortality is the percentage killed.

Take `Cn1c(C(F)(F)F)cc2nc(-c3ccccc3Cl)cn2c1=O` [Example C-1, 2-(2-chlorophenyl)-6-methyl-7-(trifluoromethyl)imidazo[1,2-c]pyrimidin-5-one]: the mortality at 800 ppm in assay [1] is > 75%. As to `CCS(=O)(=O)c1cccnc1-c1nc2cc(C(F)(F)F)cc(=O)n2n1C` [Example C-4, 2-(3-ethylsulfonyl-2-pyridyl)-3-methyl-7-(trifluoromethyl)-[1,2,4]triazolo[1,5-a]pyridin-5-one], in assay [2], the mortality at 300 ppm is > 75%. Besides, the mortality at 800 ppm in assay [3] was > 75%.
